According to patent publication US20190380937A1, “PROCESS FOR DEPIGMENTING KERATIN MATERIALS USING THIOPYRIDINONE COMPOUNDS” (L'OREAL, priority 2015, published 2019):
Like-named read-outs stand apart in the source and are kept apart here.

Columns and labels:
[1] = system: normal human melanocytes; assay: Depigmenting activity (reduction of melanin production) in normal human melanocytes in vitro; type: cell-based; conditions: Melanocyte, read-out: IC50 (concentration at which 50% decrease in melanin synthesis is achieved)
Experimental: The measurement of the depigmenting activity (reduction of melanin production) of compounds of formula (I) was carried out by assaying normal human melanocytes in vitro as follows.
First of all, normal human melanocytes are cultured and dispensed into 384 wells. After 24 hours, the culture medium was replaced with a medium containing compounds of formula (I) to be evaluated. The cells were incubated for 72 hours before measuring the final optical density, which measures the amount of melanin produced by the melanocytes. A dose-effect is performed using a wide concentration range of the compounds evaluated. Thus, by making the concentrations and the melanin measurements correspond, it is possible to determine an IC50 in μM: concentration at which 50% decrease in melanin synthesis is achieved. The highest concentration used in the test is 200 μM.

[2] = system: pigmented reconstructed epidermis; assay: Test on pigmented reconstructed epidermis samples (melanin quantified by image analysis); type: cell-based, human; conditions: pValue<0.05, control DMSO
Experimental: […] EP 1 878 790). The control is DMSO. The melanin was quantified by image analysis on histological slices after staining with Fontana Masson dye. Each sample of coloured epidermis is photographed over its entire length using a camera connected to a microscope. The melanin is thresholded and the number of melanin pixels is measured in each field using automated image analysis software. A non-parametric statistical test is performed in order to determine the significance of the measurements (Mann-Whitney test).
The pigmented reconstructed epidermis standard study model was published by:
Regnier M, Duval C, Galey J B, Philippe M, Lagrange A, Tuloup R, Schmidt R, Cellular and Molecular Biology, 1999, 45, 7, 969-980: “Keratinocyte-Melanocyte co-cultures and pigmented reconstructed human epidermis: models to study modulation of melanogenesis”.

[3] = normal human melanocytes, 72 hours incubation, optical density, highest concentration 200 μM
[4] = Homo sapiens, another campaign, comparison with closest prior art compound of FR 2 968 661

Structure (SMILES) | IC50 [1, 3] | depigmenting activity (melanin quantification, Mann-Whitney test) ([2]; at 100 μM) | IC50 [1, 4] | depigmenting activity (melanin quantification, Mann-Whitney test) ([2]; at 300 μM)
O=C(O)CNC(=O)c1ccc[nH]c1=S [Compound 1, N-[(2-thioxo-1,2-dihydropyridin-3-yl)carbonyl]glycine] | 11.4 µM | Significant depigmenting activity | – | –
CN(CC(=O)O)C(=O)c1ccc[nH]c1=S [Compound 2, N-methyl-N-[(2-thioxo-1,2-dihydropyridin-3-yl)carbonyl]glycine] | 5.27 µM | Significant depigmenting activity | – | –
CCOC(=O)CNC(=O)c1ccc[nH]c1=S [Compound 3, Ethyl N-[(2-thioxo-1,2-dihydropyridin-3-yl)carbonyl]glycinate] | 36.8 µM | – | 20.8 µM | Significant depigmenting activity
CCOC(=O)CN(C)C(=O)c1ccc[nH]c1=S [Compound 4, Ethyl N-methyl-N-[(2-thioxo-1,2-dihydropyridin-3-yl)carbonyl]glycinate] | 67.6 µM | – | – | Significant depigmenting activity
CCOC(=O)C(C)NC(=O)c1ccc[nH]c1=S (stereo not shown) [reference compound] | – | – | 37.4 µM | –
